Data on eleven molecules can be found in patent publication US11773063B1, “Pharmaceutically acceptable salts and compositions thereof” (priority 2022, dated 2023).

Molecules are shown by their SMILES. Counter-ions that a name gives are not always drawn.

Series [1] is described as follows: Dynamic Vapor Sorption (DVS), salt screen and scale-up salts. Format: physicochemical. The settings on record: for moisture absorption at 70% RH / moisture absorption at 80% RH / water uptake up to 60% RH: first sorption isotherm; for moisture absorption at 70% RH / moisture absorption at 80% RH / water uptake up to 60% RH / deliquescence during DVS / hygroscopicity class: 25° C.; for deliquescence during DVS: high RH; for hygroscopicity class: DVS. The protocol: Dynamic Vapor Sorption (DVS)
DVS analyses were performed on TA Instrument DVS Q5000. Samples were added to a pre-tared metallised quartz crucible and run at 25° C. from 40% RH to 90% RH, down to zero and back to 40%. This cycle was repeated in increments of 10% RH.

Series [2] can be described thus: Thermo-Gravimetric Analysis (TGA), thermal stability. The settings on record: for thermal stability up to (TGA): nitrogen. As for the experimental part: Thermo—Gravimetric Analysis (TGA)
TGA thermograms were obtained with a TA Instrument Discovery 550 in Al pans. The heating rate used was 10° C./min linear ramp from 25 to 400° C. with a nitrogen purging at a rate of 60 ml/min. TGA thermograms were analysed using TRIOS software.

Series [3] can be described thus: Storage at 40° C./75% RH and 25° C./97% RH for 7 days, XRPD and HPLC (Example 3). Format: physicochemical. The protocol:
FIG. 128. XRPD diffractogram overlay of 5-MeO-DMT Phosphate Pattern 1 before and after storage at 25° C./97% RH and 40° C./75% RH for 7 days.
FIG. 139. XRPD diffractogram overlay of 5-MeO-DMT Tartrate Pattern 1 before and after storage at 25° C./97% RH and 40° C./75% RH for 7 days.
The sample is classed as slightly hygroscopic with a total reversible mass change of 0.3 wt. % between 0-90% RH. The DVS isotherm and DVS kinetic plot can be seen in FIGS. 124 and 125, respectively. The solid form was unchanged after a double-cycle experiment, the XRPD analysis confirming this can be seen in FIG. 126.
The sample is classed as slightly hygroscopic with a total reversible mass change of 0.6 wt. % between 0-90% RH (FIG. 135). The solid-form was unchanged after the double-cycle experiment (FIG. 136).

Series [4] in a line: DVS double-cycle experiment (Example 3). Format: physicochemical.
A short description of series [5]: Polymorphism screen of hydrochloride and benzoate salts: thermal cycling, evaporation, antisolvent addition, cooling (XRPD). Format: physicochemical. As for the experimental part:
Twenty five of the lyophilised samples were treated with solvent and thermally cycled between ambient and 40° C. with four hours spent under each condition. After three days and solids were isolated by centrifuge filtration and analysed by XRPD.
Twelve samples of the lyophilised material were treated with a minimal volume (ca 0.5 ml) of warm solvent, syringe filtered through a 0.22 µm filter and added to a clean HPLC vial and allowed to evaporate at RT. The solvents used and XRPD results following evaporation are detailed in the Table below:
Twelve samples of the lyophilised material were treated with a minimal volume (ca 0.5 ml) of warm solvent, syringe filtered through a 0.22 micrometre filter and added to a clean HPLC vial and allowed to evaporate at RT. The solvents used and XRPD results following evaporation are detailed in the Table below:
For antisolvent additions thirteen samples of the lyophilised material were dissolved in a small amount of hot solvent (^˜0.5 ml). […] A large excess of antisolvent was then added, the vials sealed. After storage at RT overnight, and samples where no solid had been produced were first cooled to 4° C. for ˜24 hrs, and again if no solid was produced, they were cooled to −18° C. Any solids were isolated by centrifuge filtration and analysed by XRPD.
For the cooling experiments twelve samples of the lyophilised material were dissolved in a small amount of hot solvent (^˜[…]) and syringe filtered through a 0.22 μm filter into a clean HPLC vial. Samples were allowed to cool to RT, and if no solid was produced to 4° C. and then to −18° C. Solids were isolated by centrifuge filtration and analysed by XRPD.

Series [6] is classed as physicochemical. The settings on record: 40° C./75% RH, three days. As for the experimental part: Physical Stability of Salts
Physical stability stress tests were conducted on generated crystalline salts at controlled temperature and relative humidity. The powder samples were stored at 40° C./75% RH for three days. After this time samples were analysed by XRPD to see whether the physical state of salts changed during the storage.

Series [7] in a line: Solubility assessment in four different media. Format: physicochemical. The settings on record: four media: SNF, pH 1.2, pH 4.5 and pH 6.8 media, 37 °C, aqueous buffer, thermodynamic from solid; four different media. As for the experimental part:
Solubility assessments of 5-MeO-DMT oxalate, hydrobromide fumarate and benzoate were performed in four different media: […]

For `COc1ccc2[nH]cc(CCN(C)C)c2c1` [Benzenesulfonate salt, 5-MeO-DMT benzenesulfonate], in series [1], the “moisture absorption at 70% RH” value is listed as 7 % w/w, the “moisture absorption at 80% RH” value was 14 % w/w, the “water uptake up to 60% RH” value turned out to be 1.2 % w/w and the “deliquescence during DVS” value is on record as “begins to deliquesce”. Moreover, the “thermal stability up to (TGA)” value in series [2] (10° C./min) was 250 °C.

With `COc1ccc2[nH]cc(CCN(C)C)c2c1.O=P(O)(O)O` [DR-2186-48-01], the “Static Storage 7 days - 25° C./97% RH, XRPD” value in series [3] (25° C./97% RH) is given as “XRPD - PHO Pattern 1”. The “Static Storage 7 days - 25° C./97% RH, HPLC” value in series [3] (25° C./97% RH, HPLC purity) is “HPLC - 98.0%”. The “Static Storage 7 days - 40° C./75% RH, XRPD” value in series [3] (40° C./75% RH) was “XRPD - PHO Pattern 1”. Also, in series [3] (40° C./75% RH, HPLC purity), the “Static Storage 7 days - 40° C./75% RH, HPLC” value was “HPLC - 98.1%”. For the same molecule, the TGA decomposition onset in series [2] is 130-170 °C Decomposition onset from 180 °C. The “TGA further mass lost during the melt” value in series [2] (130-170° C.) is on record as “further 0.95% (0.1 mol eq. MeOH) was lost during the melt,”. In addition, the TGA mass loss in series [2] (from 40-125° C.) was 0.4 wt. % (0.04 mol. eq. MeOH) mass loss from 40-125 °C A. Further, the “GVS hygroscopicity class (European Pharmacopeia definitions)” value in series [4] is “slightly hygroscopic (based on European Pharmacopeia (Pharmaceuticals that pick up between 0.2% and 2.0% moisture at 80% RH are considered slightly hygroscopic)”. Further, the “GVS total mass change as mol eq. water” value in series [4] (from 0-90% RH) is 0.06 mol eq. water. For the same molecule, the “GVS total mass change” value in series [4] (from 0-90% RH, double cycle) is recorded as 0.34 wt. %.

Regarding `COc1ccc2[nH]cc(CCN(C)C)c2c1.Cl` [Hydrochloride pattern 3, 5-MeO-DMT hydrochloride], the “start of decomposition / complete mass loss (TGA)” value in series [2] (10° C./min, hydrochloride) is “around 260 °C”. The “XRPD Result” value in series [5] (hydrochloride salt, solid isolated after thermal cycle between ambient and 40° C., three days, solvent per experiment: -01 1,4-Dioxane, -02 1-Propanol, -03 2-Butanol, -05 2-Methyltetrahydrofuran, -06 2-Propanol, -07 Acetone, -08 Acetonitrile, -09 Anisole, -10 Chlorobenzene, -11 Ethanol, -12 Ethyl acetate, -13 Isopropyl acetate, -14 Methanol, -15 Propyl acetate, -16 Methylethyl ketone, -20 iso-Prop, listed as DJP2202-007-14, hydrochloride) is given as “Pattern 3”. For the same molecule, in series [5] (hydrochloride salt, thermally cycled between ambient and 40° C., three days, solvent per experiment: -01 1,4-Dioxane, -02 1-Propanol, -03 2-Butanol, -04 2-Ethoxyethanol, -05 2-Methyltetrahydrofuran, -06 2-Propanol, -07 Acetone, -08 Acetonitrile, -09 Anisole, -10 Chlorobenzene, -11 Ethanol, -12 Ethyl acetate, -13 Isopropyl acetate, -14 Methanol, -15 Propyl acetate, -16 Methylethyl ketone, -17 Forma, listed as DJP2202-007-14, hydrochloride), the “3-day Observations” value is on record as “clear solution”. Further, the “Initial Observations” value in series [5] (thermal cycle of lyophilised hydrochloride salt (~40 mg), solvent added, solvent per experiment: -01 1,4-Dioxane, -02 1-Propanol, -03 2-Butanol, -04 2-Ethoxyethanol, -05 2-Methyltetrahydrofuran, -06 2-Propanol, -07 Acetone, -08 Acetonitrile, -09 Anisole, -10 Chlorobenzene, -11 Ethanol, -12 Ethyl acetate, -13 Isopropyl acetate, -14 Methanol, -15 Propyl acetate, -16 Methylethyl ketone, -17 Formamide, listed as DJP2202-007-14, hydrochloride) is listed as “dissolved”.

Turning to `COc1ccc2[nH]cc(CCN(C)C)c2c1.O=C(O)CC(O)C(=O)O` [Malate salt, 5-MeO-DMT malate], the “crystalline form after storage (XRPD)” value in series [6] is “conversion to a “gum” material”. Also, the “thermal stability up to (TGA)” value in series [2] (10° C./min) was “around 170 °C”.

In the case of `COc1ccc2[nH]cc(CCN(C)C)c2c1` [Phosphate Pattern 1, 5-MeO-DMT phosphate], the “total reversible mass change between 0-90% RH” value in series [4] (DVS) was found to be 0.3 wt. %.

As to `COc1ccc2[nH]cc(CCN(C)C)c2c1` [Phosphate salt, 5-MeO-DMT phosphate], the “change of crystalline form during the DVS experiment (DVS / post-DVS XRPD)” value (shortened to “change … (DVS / post-DVS XRPD)”) in series [1] was “no evidence of form change”. The “crystalline form after storage (XRPD)” value in series [6] is recorded as “did not undergo any transformation”.

As for `COc1ccc2[nH]cc(CCN(C)C)c2c1` [Tartrate salt, 5-MeO-DMT tartrate], in series [1], the “change … (DVS / post-DVS XRPD)” value is “did not undergo any solid form transformation”; the hygroscopicity class result is “moderately hygroscopic (Pharmaceuticals that pick up between 2.0% and 15.0% moisture at 80% RH are considered moderately hygroscopic)”. The hygroscopicity class entry in series [1] (listed as tartrate salt) was “moderately hygroscopic (Pharmaceuticals that pick up between 2.0% and 15.0% moisture at 80% RH are considered moderately hygroscopic)”. In addition, the “crystalline form after storage (XRPD)” value in series [6] is “No change in the crystalline form”. Moreover, the “thermal stability up to (TGA)” value in series [2] (10° C./min) is “around 170 °C”.

`COc1ccc2[nH]cc(CCN(C)C)c2c1` [Tosylate salt, 5-MeO-DMT tosylate]: in series [1], the “change … (DVS / post-DVS XRPD)” value is listed as “did not undergo any solid-state changes”; the hygroscopicity class entry is “slightly hygroscopic (Pharmaceuticals that pick up between 0.2% and 2.0% moisture at 80% RH are considered slightly hygroscopic)”. The “crystalline form after storage (XRPD)” value in series [6] was “identical XRPD pattern as the input material”.

In general, solubility refers to how much of the substance goes into solution per volume. A higher solubility goes with much dissolved substance. `COc1ccc2[nH]cc(CCN(C)C)c2c1.O=C(O)c1ccccc1` [benzoate salt, 5-MeO-DMT benzoate]: the solubility in series [7] is at least 100 mg/mL. In addition, the “XRPD Result” value is given as “Oil” in series [5] (evaporation at RT of lyophilised benzoate salt from 1-PrOH (DJP2202-010-02)); “Oil” in series [5] (evaporation at RT of lyophilised benzoate salt from EtOH (DJP2202-010-05)); “Pattern 4” in series [5] (evaporation at RT of lyophilised benzoate salt from IPA (DJP2202-010-06)); “Pattern 2” in series [5] (evaporation at RT of lyophilised benzoate salt from IPAc (DJP2202-010-10)); “Pattern 4” in series [5] (evaporation at RT of lyophilised benzoate salt from MEK (DJP2202-010-11)); “Oil” in series [5] (evaporation at RT of lyophilised benzoate salt from MIBK (DJP2202-010-04)). For the same molecule, the “XRPD Result” value in series [5] (evaporation at RT of lyophilised benzoate salt from MeCN (DJP2202-010-12)), in series [5] (evaporation at RT of lyophilised benzoate salt from THF (DJP2202-010-07)), in series [5] (evaporation at RT of lyophilised benzoate salt from chlorobenzene (DJP2202-010-09)) and in series [5] (evaporation at RT of lyophilised benzoate salt from dioxane (DJP2202-010-08)) was “Pattern 4” throughout.

With `COc1ccc2[nH]cc(CCN(C)C)c2c1` [glycolate salt, 5-MeO-DMT glycolate], in series [1], the “moisture absorption at 70% RH” value is recorded as 11 % w/w, the “moisture absorption at 80% RH” value amounted to 33 % w/w, the “water uptake up to 60% RH” value is given as 2.3 % w/w and the “deliquescence during DVS” value was “begins to deliquesce”. The “thermal stability up to (TGA)” value in series [2] (10° C./min) was “around 155 °C”.

Consider `COc1ccc2[nH]cc(CCN(C)C)c2c1.Cl` [hydrochloride salt, 5-MeO-DMT hydrochloride], for which the “thermal stability up to (TGA)” value in series [2] (10° C./min) is around 235 °C. The “XRPD Results” value in series [5] (evaporation at RT of lyophilised hydrochloride salt from 1-PrOH (DJP2202-011-02)) is given as “Pattern 1”; in series [5] (evaporation at RT of lyophilised hydrochloride salt from EtOH (DJP2202-011-05)), “Pattern 1”; in series [5] (evaporation at RT of lyophilised hydrochloride salt from IPA (DJP2202-011-06)), “Pattern 1”; in series [5] (evaporation at RT of lyophilised hydrochloride salt from MEK (DJP2202-011-11)) it was “Pattern 1”; in series [5] (evaporation at RT of lyophilised hydrochloride salt from MeCN (DJP2202-011-12)) it was “Oil”.
